Source: PMC12111156, “Nitazoxanide Analogs: Synthesis, In Vitro Giardicidal Activity, and Effects on Giardia lamblia Metabolic Gene Expression” (International Journal of Molecular Sciences, 2025)
Like-named read-outs stand apart in the source and are kept apart here.

Tests used:
[1] = tested on: Giardia lamblia (giardiasis); parameters: method as in PMID 11432808, PMID 34378955, PMID 32122530, PMID 37511272; settings: cited from earlier work
[2] = tested on: G. lamblia strain ATCC 30957; assay: Viability of Giardia lamblia trophozoite culture (trypan blue count); format: cell-based; settings: for Inhibition of growth of G. lamblia parasite culture: concentration not given
Description: Viability analysis was performed on G. lamblia strain ATCC 30957 grown in TYI-S-33 medium supplemented with 10% fetal bovine serum (FBS) and an antibiotic. Pre-culture was performed in 16 × 150 mm borosilicate tubes with a medium inoculated with 2 × 10^5 trophozoites and incubated at 37 °C for 48 h. For the recovery of the trophozoites, the vial was incubated in ice for 8 min and centrifuged for 6 min at 2000 rpm. The concentrated trophozoites were suspended in 1 mL of phosphate-buffered saline (PBS), and the number of trophozoites was counted by placing a 1:1 volume ratio of cell culture and trypan blue dye (4 g/L); then, a homogeneous drop of the mixture was taken and placed in the Neubauer chamber, and the total cells were counted.
The curves were plotted for concentrations of 0–50 µM of each compound. The assay was performed by placing 1.5 × 10^5 cells in 1.5 mL microcentrifuge tubes with a supplemented medium and different concentrations of each compound (0–50 µM). The negative control was performed under the same conditions without a compound, and the drugs NTZ and MTZ were used as positive controls. The samples were incubated for 48 h at 37 °C. At the end of the incubation, the cell viability count was performed using the trypan blue technique. The viability calculation was performed following the formula nv/(nv + nm), where nv represents the live cells and nm represents the dead cells; the viability value obtained was expressed as a percentage. The IC50 value of each compound was determined using the IC50 Calculator software (https://www.aatbio.com/tools/ic50-calculator).

[3] = tested on: Giardia lamblia trophozoites (strain ATCC 30957) gene expression; assay: Gene expression in trophozoites by RT-qPCR; format: cell-based; settings: IC50 of each compound, 48 h
Description: To determine the alterations in the parasite’s metabolism and cellular processes induced by the compounds, the expression levels of various genes encoding metabolic, structural, and oxidative stress response proteins were evaluated. G. lamblia strain ATCC 30957 was grown by following previously established culture parameters.
The culture tube was incubated on ice for 15 min and then centrifuged at 2000 rpm for 6 min to concentrate the cell pellet. Cell counting was performed using the trypan blue method. A 500 µL volume of Trizol ® was added, and it was gently homogenized; then, 60 µL of chloroform was added, and it was homogenized for 10 s with a vortex and incubated on ice for 3 min. Afterward, it was centrifuged at 12,000 rpm for 10 min, the aqueous phase was transferred to a new tube, 200 µL of isopropanol was added, and it was incubated for 3 h on ice. The sample was then centrifuged for 10 min at 12,000 rpm, and the supernatant was discarded. A 600 µL volume of ethanol (70%) was added, homogenized, and centrifuged. In the end, the supernatant was removed, and the sample was centrifuged again to dry the excess alcohol. The pellet was dried. Finally, it was resuspended in 25 µL of sterile MilliQ water. The concentration and purity of the extracted RNA were determined using the NanoDrop® Spectrophotometer ND-1000 (NanoDrop Technologies, Wilmington, DE, USA). […] RNA purity and integrity were confirmed using 0.8% (w/v) agarose gels under denaturing conditions.
The synthesis of cDNA was carried out with […] of purified RNA, and 1 U of […] was added (Thermo Thermo Fisher Scientific, Waltham, MA, USA). First-strand cDNA synthesis was carried out using 1 μg of DNase-treated RNA, combined with a 10 mM dNTP mix, oligo(dT)18 primer, and RevertAid reverse transcriptase (Thermo Scientific) in a final reaction volume of 20 μL. The reaction mixture was incubated at 42 °C for 60 min, followed by heat inactivation at 70 °C for 10 min. The synthesized cDNA was stored at −20 °C until further use. The level of purity and concentration of the cDNA were determined using the NanoDrop® Spectrophotometer ND-1000 (NanoDrop Technologies, Wilmington, DE, USA).
Specific oligonucleotides were designed to determine the expression levels of the gene’s phosphofructokinase, pyruvate kinase, glucose-6-phosphate dehydrogenase::6-phosphogluconolactonase, 6-phosphogluconate dehydrogenase, and transketolase. The design was based on gene sequences available in the National Center for Biotechnology Information (NCBI) database, adhering to the following criteria: an oligonucleotide length of 18–20 bp, a melting temperature (Tm) of 61 °C, a GC content of approximately 40%, and an amplicon size between 80 and 200 bp (Table 4). The oligonucleotides were synthesized by the Sequencing and Synthesis Unit of the Institute of Biotechnology, UNAM.
Additionally, previously reported primers that were used for the gene expression analysis of G. lamblia were also obtained (Table 4). These primers target genes encoding surface structural protein, giardin, actin, pyruvate:ferredoxin oxidoreductase, pyruvate phosphate dikinase, NADH oxidase, triose phosphate isomerase, glyceraldehyde-3-phosphate dehydrogenase, and Aldolase.
Amplification was performed using a StepOne™ Real-Time PCR System and the Fast SYBR® Green Master Mix kit (Applied Biosystems, Foster City, CA, USA) under the following conditions: an initial denaturation at 95 °C for 30 s, followed by 40 cycles of 95 °C for 3 s and 60 °C for 30 s. The melt curve analysis was conducted post-amplification by gradually increasing the temperature from 60 °C to 95 °C. […] Normalization was performed using the geometric mean of cycle threshold (Ct) values, and the relative expression levels of the target genes were calculated using the 2^−ΔΔCt method. Each reaction was performed in five replicates for all analyzed genes and strains. Results are presented as mean values ± standard deviation (SD).

[4] = tested on: G6PD::6PGL enzyme of G. lamblia; settings: cited from earlier work
Caco-2 cells = tested on: Caco-2 cells; parameters: method as in PMID 38893461; settings: cited from earlier work
[5] = tested on: G. lamblia strain resistant to nitazoxanide; assay: Giardicidal activity in nitazoxanide-resistant strain (trypan blue count); format: cell-based; settings: Giardia duodenalis, 48 h, read-out: IC50 G. lamblia (NTZ Resistant)
Description: A pre-culture at confluence was used as a starting point, and a concentration–response curve was plotted using an initial compound concentration of 25 μM in a final volume of 1.5 mL of TYI-S-33 medium, followed by serial dilutions of the compound. Each treatment was inoculated with 1.5 × 10^5 trophozoites and incubated for 48 h at 37 °C. At the end of the incubation, the number of trophozoites was determined using the trypan blue assay and by counting in a Neubauer chamber. The viability percentage at each compound concentration was calculated using the negative control as a reference.

HT-29 cells [6] = assay: Cytotoxicity, XTT viability assay, HT-29; settings: for Selectivity index (CC50/IC50) HT-29: CC50 HT-29 / IC50 trophozoite ATCC strain 30957
Description: (§1) The cytotoxicity assay was performed to evaluate the effect of the selected compounds on human cells. Colon cells were used because they are cell lines like those present in the microenvironment where G. lamblia colonizes, which is the small intestine of the host. The assay was performed using the human cell lines Caco-2 (ATCC HTB-37) and HT-29 (ATCC […]). Cell viability was determined using the Cell Proliferation Kit II (XTT, St. Louis, MO, EE. UU.). A cell suspension of 2 × 10^3 cells/mL was prepared in Dulbecco’s modified Eagle’s medium (DMEM) supplemented with 10% inactivated fetal bovine serum and an antibiotic (1% penicillin/streptomycin, 5000 U/mL, in a volume of 100 µL). The suspension was added to a 96-well plate. The plates were incubated for 24 h at 37 °C in a 5% CO2 atmosphere. […] The cells were incubated for 48 h at 37 °C in a 5% CO2 atmosphere. Cell viability was determined using the following steps. The medium in each well was replaced with 100 µL of fresh medium, and 50 µL of XTT labeling mix was added per well. The reaction was incubated for four hours at 37 °C and 5% CO2. After incubation, the absorbance of the samples on the plate was measured at 450 nm. Each compound was assayed in triplicate in three independent experiments. CC50 values (μM) were determined using the nonlinear regression function of GraphPad Prism version 8 for Windows.

[7] = Cytotoxicity, XTT viability assay, Caco-2; settings: human
Description: as §1

HT-29 cells [8] = tested on: HT-29 cells; parameters: method as in PMID 38893461; settings: cited from earlier work
Caco-2 and HT-29 cells = assay: Cytotoxicity, XTT viability assay, stated for both cell lines; format: cell-based, human; settings: 125 µM, 48 h
Description: The suspension was added to a 96-well plate. […] Cell viability was determined using the following steps.

[9] = Cytotoxicity, XTT viability assay, HT-29; settings: human, CC50 HT-29, 48 h, XTT
Description: as §1

[10] = ratio of IC50 values, ATCC strain
[11] = Giardia duodenalis, ATCC30957, 48 h, trophozoites ATCC 30957, 48 h, 37 °C, read-out: IC50 G. lamblia
[12] = trophozoites ATCC 30957, 48 h, 37 °C, read-out: IC50 G. lamblia

| Structure (SMILES) | G6PD::6PGL gene expression vs control [3] | GIA (giardin) gene expression, increase vs control [3] | NADHox gene expression, increase vs control [3] | PFK gene expression vs control [3] | PFOR gene expression vs control [3] | TKT gene expression, increase vs control [3] | CC50 (Caco-2 cells) | IC50 [5] | Selectivity index (CC50/IC50) HT-29 (HT-29 cells [6]) | selectivity ratio at 48 h ([7]; Caco-2) | CC50 (HT-29 cells [8]) | Inhibition of growth of G. lamblia parasite culture [2] | TKT gene expression, decrease vs control [3] | Decrease of cell viability (Caco-2 and HT-29 cells) | Inhibition of the G6PD::6PGL enzyme (in words) [4] | CC50 at 48 h [9] | CC50 at 48 h ([7]; Caco-2) | IC50 [2, 11] | IC50 [2, 12] | PPDK gene expression vs control [3] | other results |
| --- | --- | --- | --- | --- | --- | --- | --- | --- | --- | --- | --- | --- | --- | --- | --- | --- | --- | --- | --- | --- | --- |
| CC(=O)Oc1ccccc1C(=O)Nc1ncc([N+](=O)[O-])s1 [NTZ, nitazoxanide] | 48.3 fold change | did not show changes in expression | lower | reduction | 14 fold change | 36.1 times | 580 µM | 7.29 µM | 147 | 134 | 634 µM | – | – | – | – | – | – | – | – | – | Efficacy in treatment of giardiasis [1]: 71%; IC50 ([2]; Giardia duodenalis, ATCC30957, 48 h, read-out: IC50 G. lamblia, trophozoites ATCC 30957, 48 h, 37 °C): 3.4 µM; IC50 ([2]; read-out: IC50 G. lamblia, trophozoites ATCC 30957, 48 h, 37 °C): 4.3 µM; 6PGDH gene expression vs control [3]: differential overexpression; GAPDH gene expression vs control [3]: 17.2 fold change; Inhibition of GlG6PD::6PGL (in words) [4]: catalytic inhibitor |
| O=C(Nc1ncc([N+](=O)[O-])s1)c1cccc([N+](=O)[O-])c1 [FLP-8, 3-Nitro-N-(5-nitro-1,3-thiazol-2-yl)benzamide] | – | did not show changes in expression | 1.7 times | 2.7 fold change | – | – | – | 1.19 µM | 436 | 460 | – | more than 98% | 1.7 times | ≤ 50% | not inhibitors of the enzyme | 43.6 µM | 46 µM | – | – | – | Decrease of parasite viability ([2]; 25 µM): 100%; Relative potency compared with MTZ [2, 10]: 34 times; Relative potency compared with NTZ [2, 10]: 43 times; VSP gene expression, increase vs control [3]: 2.4 times; CC50 (HT-29 cells [6]; read-out: CC50 HT-29, 48 h, XTT): 43.7 µM |
| Cc1ncc([N+](=O)[O-])n1CCO [MTZ, metronidazole, reference compound] | – | – | – | – | – | – | 545 µM | – | 161 | 160 | 550 µM | – | – | – | – | – | – | 4.3 µM | 3.4 µM | – | – |
| CCCCOc1ccc(NC(=O)Nc2ncc([N+](=O)[O-])s2)cc1 [CNZ-8] | 19.4 fold change | 12.5 times | 4.2 times | reduction | – | – | – | 13.7 µM | 56 | 57 | – | more than 98% | 1.4 times | up to 20% | inhibitors of the G6PD enzyme | – | – | < 15 µM | 11.1 µM | 8.2 fold change | CC50 at 48 h ([9]; HT-29 cells): 622 µM; CC50 at 48 h ([7]; Caco-2, CC50 Caco-2, 48 h, XTT): 633 µM |
| O=C(Nc1ccc([N+](=O)[O-])cc1)Nc1ncc([N+](=O)[O-])s1 [CNZ-7] | 11.4 fold change | 2.6 times | 1.7 times | reduction | 7.4 fold change | 1.9 times | – | 2.5 µM | 100 | 121 | – | more than 98% | – | up to 20% | inhibitors of the G6PD enzyme | 529 µM | 640 µM | – | – | 15.8 fold change | ACT (actin) gene expression, increase vs control [3]: 2.1 times |
